Data on 19 compounds can be found in PubChem BioAssay AID256 (DTP/NCI, 2004).

Structures are written as SMILES. Values joined by “and” are separate entries in the source; they are usually repeats but may differ in a detail not shown here. Equal values may be shown once. Toxic doses and inconclusive results are not listed.

The test system of the test is CD2F1 mice, L1210 leukemia ip, survival T/C. Kind of test: NCI In Vivo Anticancer Drug Screen. Data for tumor model L1210 Leukemia (intraperitoneal) in CD2F1 (CDF1) mice. To be noted: higher = longer survival. In a few lines: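 Transplantable tumor in mice; compound-treated vs vehicle-treated groups. Read-out = treated/control ratio of the measured endpoint.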
Where [1] appears, read: endpoint: mean survival time, dose: 100.0 mg/kg/injection, schedule: Q01DX001 (ip), vehicle: saline with Tween-80.
Setting [2] is: endpoint: mean survival time, dose: 200.0 mg/kg/injection, schedule: Q01DX001 (ip), vehicle: saline with Tween-80.
Where [3] appears, read: endpoint: mean survival time, dose: 400.0 mg/kg/injection, schedule: Q01DX001 (ip), vehicle: saline with Tween-80.
Setting [4] is: endpoint: mean survival time, dose: 100.0 mg/kg/injection, schedule: Q04DX003 (ip), vehicle: saline with Tween-80.
Where [5] appears, read: endpoint: mean survival time, dose: 100.0 mg/kg/injection, schedule: Q01DX001 (ip), vehicle: saline.
Where [6] appears, read: endpoint: mean survival time, dose: 200.0 mg/kg/injection, schedule: Q01DX001 (ip), vehicle: saline.
The mark [7] stands for this setting: endpoint: mean survival time, dose: 400.0 mg/kg/injection, schedule: Q01DX001 (ip), vehicle: saline.
Where [8] appears, read: endpoint: mean survival time, dose: 25.0 mg/kg/injection, schedule: Q01DX009 (ip), vehicle: saline with Tween-80.
The mark [9] stands for this setting: endpoint: mean survival time, dose: 100.0 mg/kg/injection, schedule: Q01DX009 (ip), vehicle: saline with Tween-80.
Setting [10] is: endpoint: mean survival time, dose: 12.5 mg/kg/injection, schedule: Q01DX009 (ip), vehicle: saline with Tween-80.

For `C=CC(N)=O`, the T/C is, setting by setting: (endpoint: mean survival time, dose: 25.0 mg/kg/injection, schedule: Q01DX009 (ip), vehicle: saline) 102 % of control; (endpoint: mean survival time, dose: 25.0 mg/kg/injection, schedule: Q04DX003 (ip), vehicle: saline) 92 % of control; (endpoint: mean survival time, dose: 50.0 mg/kg/injection, schedule: Q01DX009 (ip), vehicle: saline) 92 % of control; (endpoint: mean survival time, dose: 50.0 mg/kg/injection, schedule: Q04DX003 (ip), vehicle: saline) 105 % of control; (endpoint: mean survival time, dose: 100.0 mg/kg/injection, schedule: Q04DX003 (ip), vehicle: saline) 97 % of control.

Regarding `CCOC(=O)c1cnc(SCc2ccccc2)nc1Nc1ccccc1`, the T/C under setting [1] was 93 % of control, the T/C under setting [2] is 88 % of control and the T/C under setting [3] is 88 % of control.

Turning to `Cc1c(N=Nc2ccc(N(C)C)cc2)cc[n+]([O-])c1C`, the T/C reads like this: under setting [4], 102 % of control; (endpoint: mean survival time, dose: 200.0 mg/kg/injection, schedule: Q04DX003 (ip), vehicle: saline with Tween-80) 110 % of control.

Turning to `CNc1ccc(CSc2ccccc2)cc1`, the T/C is 96 % of control (endpoint: mean survival time, dose: 100.0 mg/kg/injection, schedule: Q01DX001 (ip), vehicle: Klucel (hydroxypropylcellulose) (HPC)); 96 % of control (endpoint: mean survival time, dose: 200.0 mg/kg/injection, schedule: Q01DX001 (ip), vehicle: Klucel (hydroxypropylcellulose) (HPC)); 87 % of control (endpoint: mean survival time, dose: 400.0 mg/kg/injection, schedule: Q01DX001 (ip), vehicle: Klucel (hydroxypropylcellulose) (HPC)).

With `O=C1CCCCCN1C(=O)c1ccccc1`, the T/C runs as follows: (endpoint: mean survival time, dose: 50.0 mg/kg/injection, schedule: Q01DX009 (ip), vehicle: other) 105 % of control; (endpoint: mean survival time, dose: 100.0 mg/kg/injection, schedule: Q01DX009 (ip), vehicle: other) 97 % of control; (endpoint: mean survival time, dose: 200.0 mg/kg/injection, schedule: Q01DX009 (ip), vehicle: other) 105 % of control.

`CCCCNC(=S)N/N=C/c1ccccn1`: the T/C was 98 % of control (endpoint: mean survival time, dose: 100.0 mg/kg/injection, schedule: Q04DX002 (ip), vehicle: saline with Tween-80) and 109 % of control (endpoint: mean survival time, dose: 200.0 mg/kg/injection, schedule: Q04DX002 (ip), vehicle: saline with Tween-80).

Take `COc1ccc2c(c1)C1(C)CCCC(C#N)C1CC2` (stereo unspecified): the T/C runs as follows: under setting [5], 101 % of control; under setting [6], 96 % of control; under setting [7], 94 % of control.

`Cc1cc([N+](=O)[O-])cc(Br)c1N`: the T/C is 93 % of control (endpoint: mean survival time, dose: 44.0 mg/kg/injection, schedule: Q04DX003 (ip), vehicle: saline with Tween-80); 95 % of control (endpoint: mean survival time, dose: 66.0 mg/kg/injection, schedule: Q04DX003 (ip), vehicle: saline with Tween-80); 93 % of control under setting [4]; 95 % of control (endpoint: mean survival time, dose: 150.0 mg/kg/injection, schedule: Q04DX003 (ip), vehicle: saline with Tween-80).

For the compound `COc1ccc(C(=O)/C=C/c2cccc3ccccc23)cc1`, the T/C runs as follows: under setting [8], 91 % of control; (endpoint: mean survival time, dose: 50.0 mg/kg/injection, schedule: Q01DX009 (ip), vehicle: saline with Tween-80) 93 % of control; under setting [9], 91 % of control.

Regarding `CC1(C)N=C(N)N=C(N)N1c1ccc(CCC(=O)Nc2ccc(S(=O)(=O)F)cc2)cc1`, the T/C by setting is: under setting [10], 112 % of control; under setting [8], 117 % of control; under setting [5], 102 % of control; under setting [9], 115 % of control; under setting [6], 111 % of control; (endpoint: mean survival time, dose: 200.0 mg/kg/injection, schedule: Q01DX009 (ip), vehicle: saline) 123 % of control. Also, the T/C is 171 % of control (endpoint: mean survival time, dose: 300.0 mg/kg/injection, schedule: Q01DX009 (ip), vehicle: saline); 120 % of control under setting [7]; 123 % of control (endpoint: mean survival time, dose: 400.0 mg/kg/injection, schedule: Q01DX009 (ip), vehicle: saline).

For `CO[C@@]12[C@@H]3N[C@@H]3CN1C1=C(C(=O)C(Nc3nc(C)c(C)s3)=C(C)C1=O)[C@@H]2COC(N)=O`, the T/C was 98 % of control and 101 % of control (endpoint: median survival time, dose: 1.5 mg/kg/injection, schedule: Q01DX001 (ip), vehicle: distilled water + Tween-80); 120 % of control and 101 % of control and 102 % of control (endpoint: median survival time, dose: 3.0 mg/kg/injection, schedule: Q01DX001 (ip), vehicle: distilled water + Tween-80); 123 % of control and 101 % of control (2×) (endpoint: median survival time, dose: 6.0 mg/kg/injection, schedule: Q01DX001 (ip), vehicle: distilled water + Tween-80); 98 % of control and 101 % of control (endpoint: median survival time, dose: 12.0 mg/kg/injection, schedule: Q01DX001 (ip), vehicle: distilled water + Tween-80); 121 % of control and 102 % of control and 106 % of control (endpoint: median survival time, dose: 24.0 mg/kg/injection, schedule: Q01DX001 (ip), vehicle: distilled water + Tween-80).

In the case of `CCN(CC)CCN(C)C(=O)C(O)(c1ccccc1)c1ccccc1`, the T/C was 100 % of control (endpoint: mean survival time, dose: 75.0 mg/kg/injection, schedule: Q01DX001 (ip), vehicle: saline); 103 % of control (endpoint: mean survival time, dose: 150.0 mg/kg/injection, schedule: Q01DX001 (ip), vehicle: saline); 102 % of control (endpoint: mean survival time, dose: 300.0 mg/kg/injection, schedule: Q01DX001 (ip), vehicle: saline).

With `CCc1c2c(nc3ccc(OC(=O)N4CCC(N5CCCCC5)CC4)cc13)-c1cc3c(c(=O)n1C2)COC(=O)[C@]3(O)CC`, the T/C runs as follows: (endpoint: median survival time, dose: 26.4 mg/kg/injection, schedule: Q04HX004 (iv), vehicle: water) 177 % of control; (endpoint: median survival time, dose: 39.6 mg/kg/injection, schedule: Q04DX002 (ip), vehicle: water) 206 % of control; (endpoint: median survival time, dose: 39.6 mg/kg/injection, schedule: Q04HX004 (iv), vehicle: water) 192 % of control; (endpoint: median survival time, dose: 59.3 mg/kg/injection, schedule: Q04DX002 (ip), vehicle: water) 231 % of control; (endpoint: median survival time, dose: 59.3 mg/kg/injection, schedule: Q04HX004 (iv), vehicle: water) 193 % of control; (endpoint: median survival time, dose: 89.0 mg/kg/injection, schedule: Q04DX002 (ip), vehicle: water) 500 % of control. For the same compound, the T/C (endpoint: median survival time, dose: 89.0 mg/kg/injection, schedule: Q04HX004 (iv), vehicle: water) is 209 % of control.

`CCN(CC)CCCC(C)Nc1ncnc2oc(C)c(C)c12` (stereo unspecified): the T/C was 93 % of control (endpoint: mean survival time, dose: 6.25 mg/kg/injection, schedule: Q01DX009 (ip), vehicle: saline with Tween-80); 103 % of control (endpoint: mean survival time, dose: 6.25 mg/kg/injection, schedule: Q04DX003 (ip), vehicle: saline with Tween-80); 95 % of control under setting [10]; 105 % of control (endpoint: mean survival time, dose: 12.5 mg/kg/injection, schedule: Q04DX003 (ip), vehicle: saline with Tween-80); 95 % of control under setting [8]; 102 % of control (endpoint: mean survival time, dose: 25.0 mg/kg/injection, schedule: Q04DX003 (ip), vehicle: saline with Tween-80).

With `CC(C)CCCC(C)C1CCC2C3CC=C4CC(O)CCC4(C)C3CCC12C` (stereo unspecified) (tested in a mixture with another compound), the T/C (endpoint: mean survival time, dose: 12.5 mg/kg/injection, schedule: Q01DX009 (ip), vehicle: water) is 102 % of control; the T/C (endpoint: mean survival time, dose: 25.0 mg/kg/injection, schedule: Q01DX009 (ip), vehicle: water) was 100 % of control; the T/C (endpoint: mean survival time, dose: 50.0 mg/kg/injection, schedule: Q01DX009 (ip), vehicle: water) is 102 % of control.

`CCCCCCCCCCCCCCCCCCC(C)C1CCCCC1` (stereo unspecified): the T/C was 104 % of control under setting [1], 107 % of control under setting [2] and 101 % of control under setting [3].

In the case of `C=C1C(=O)OC2CC(C)C3CC(OCCCl)OC(OCCCl)C3(C)CC12` (stereo unspecified), the T/C is, setting by setting: (endpoint: mean survival time, dose: 10.0 mg/kg/injection, schedule: Q01DX005 (ip), vehicle: water) 98 % of control; (endpoint: mean survival time, dose: 20.0 mg/kg/injection, schedule: Q01DX005 (ip), vehicle: water) 96 % of control; (endpoint: mean survival time, dose: 40.0 mg/kg/injection, schedule: Q01DX005 (ip), vehicle: water) 93 % of control; (endpoint: mean survival time, dose: 50.0 mg/kg/injection, schedule: Q01DX005 (ip), vehicle: distilled water + Tween-80) 92 % of control; (endpoint: mean survival time, dose: 80.0 mg/kg/injection, schedule: Q01DX005 (ip), vehicle: water) 94 % of control; (endpoint: mean survival time, dose: 100.0 mg/kg/injection, schedule: Q01DX005 (ip), vehicle: distilled water + Tween-80) 97 % of control. Also, the T/C is 89 % of control (endpoint: mean survival time, dose: 200.0 mg/kg/injection, schedule: Q01DX005 (ip), vehicle: distilled water + Tween-80) and 94 % of control (endpoint: mean survival time, dose: 400.0 mg/kg/injection, schedule: Q01DX005 (ip), vehicle: distilled water + Tween-80).

For the compound `Cc1cc(C2(c3cc(C)c(O)c(C(=O)O)c3)OS(=O)(=O)c3ccccc32)cc(C(=O)O)c1O`, the T/C under setting [5] was 104 % of control, the T/C under setting [6] is 98 % of control and the T/C under setting [7] was 106 % of control.

Consider `O=[N+]([O-])c1ccc(CSC2=NCCN2)cc1`, for which the T/C (endpoint: mean survival time, dose: 100.0 mg/kg/injection, schedule: Q01DX009 (ip), vehicle: saline) is 106 % of control.
